The values that follow come from ChEMBL document CHEMBL5550160, “Leveraging a rationally designed veliparib-based anilide eliciting anti-leukemic effects for the design of pH-responsive polymer nanoformulation” (Eur J Med Chem, 2024).

The target in test [1] is Histone deacetylase 5 (Homo sapiens) (UniProt Q9UQL6). Briefly: Inhibition of HDAC5 (unknown origin) assessed as residual activity at 3.33 x 10^-6M (reference value: 100%). The note with it: dose 3.33 10^-6M.
In test [2] the target is T1, Protein deacetylase HDAC6 (Homo sapiens) (UniProt Q9UBN7).
T1 sequence (whole entry): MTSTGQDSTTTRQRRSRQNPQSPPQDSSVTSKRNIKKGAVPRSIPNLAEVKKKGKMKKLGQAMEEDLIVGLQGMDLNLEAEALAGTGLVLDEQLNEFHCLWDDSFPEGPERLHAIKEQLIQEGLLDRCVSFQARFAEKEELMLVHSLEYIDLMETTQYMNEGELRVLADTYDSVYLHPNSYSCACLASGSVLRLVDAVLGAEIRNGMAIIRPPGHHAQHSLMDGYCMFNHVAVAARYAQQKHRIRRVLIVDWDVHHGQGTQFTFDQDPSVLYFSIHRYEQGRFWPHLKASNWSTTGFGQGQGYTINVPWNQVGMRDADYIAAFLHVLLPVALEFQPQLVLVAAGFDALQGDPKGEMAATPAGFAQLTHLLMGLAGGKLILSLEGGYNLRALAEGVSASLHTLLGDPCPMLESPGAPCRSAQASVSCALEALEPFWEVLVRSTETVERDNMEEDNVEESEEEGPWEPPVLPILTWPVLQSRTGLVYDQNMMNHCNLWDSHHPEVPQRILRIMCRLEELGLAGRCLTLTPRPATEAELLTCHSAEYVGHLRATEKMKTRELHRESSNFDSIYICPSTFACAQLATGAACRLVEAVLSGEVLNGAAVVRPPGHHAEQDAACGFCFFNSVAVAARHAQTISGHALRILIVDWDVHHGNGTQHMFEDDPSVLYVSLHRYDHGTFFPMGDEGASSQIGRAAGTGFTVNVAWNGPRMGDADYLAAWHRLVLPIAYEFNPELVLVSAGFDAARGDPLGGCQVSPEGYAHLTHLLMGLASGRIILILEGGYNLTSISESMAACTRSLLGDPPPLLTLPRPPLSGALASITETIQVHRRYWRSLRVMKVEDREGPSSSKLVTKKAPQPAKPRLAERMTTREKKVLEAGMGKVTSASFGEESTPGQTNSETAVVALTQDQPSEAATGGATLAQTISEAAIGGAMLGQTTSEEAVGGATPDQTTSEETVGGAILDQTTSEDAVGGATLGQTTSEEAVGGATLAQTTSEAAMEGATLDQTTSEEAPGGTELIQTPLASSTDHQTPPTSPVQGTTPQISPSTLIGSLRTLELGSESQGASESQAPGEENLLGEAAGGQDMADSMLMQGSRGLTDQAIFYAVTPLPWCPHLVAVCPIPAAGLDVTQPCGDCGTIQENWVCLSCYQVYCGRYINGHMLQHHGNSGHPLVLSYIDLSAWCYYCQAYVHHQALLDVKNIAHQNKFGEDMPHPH
The test is described as follows: Inhibition of HDAC6 (unknown origin) using p53 residues 379 to 382 [RHKK(Ac)] as fluorogenic substrate assessed as residual activity at 1 x 10^-5M (reference value: 101.06%). The note with it: dose 1.0 10^-5M.

Test [3] deals with T1, Protein deacetylase HDAC6 (Homo sapiens). Briefly: Inhibition of HDAC6 (unknown origin) using p53 residues 379 to 382 [RHKK(Ac)] as fluorogenic substrate assessed as residual activity at 1.37 x 10^-8M (reference value: 101.06%). The note with it: dose 1.37 10^-8M.
A further test has as its target Histone deacetylase 1 (Homo sapiens, UniProt Q13547). The test is described as follows: Inhibition of HDAC1 (unknown origin) using p53 residues 379 to 382 [RHKK(Ac)] as fluorogenic substrate.

pIC50: −log10 of the molar value.

Chain of Histone deacetylase 1 (Q13547 whole entry, the tested form may be a part): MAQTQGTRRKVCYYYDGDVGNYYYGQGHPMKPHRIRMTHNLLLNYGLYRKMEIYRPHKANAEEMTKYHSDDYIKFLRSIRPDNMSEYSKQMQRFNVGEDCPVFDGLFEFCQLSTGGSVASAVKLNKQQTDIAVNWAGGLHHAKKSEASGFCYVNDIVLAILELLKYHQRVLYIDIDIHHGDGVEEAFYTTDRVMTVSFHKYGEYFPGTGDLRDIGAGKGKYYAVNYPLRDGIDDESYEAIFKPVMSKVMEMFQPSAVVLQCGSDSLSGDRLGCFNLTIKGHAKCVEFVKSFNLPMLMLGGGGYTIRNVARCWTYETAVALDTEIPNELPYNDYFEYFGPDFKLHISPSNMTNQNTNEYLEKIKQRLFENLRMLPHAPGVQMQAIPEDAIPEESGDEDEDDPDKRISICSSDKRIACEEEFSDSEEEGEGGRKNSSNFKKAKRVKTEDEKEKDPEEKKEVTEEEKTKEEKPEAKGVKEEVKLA
Chain of Histone deacetylase 5 (Homo sapiens) (Q9UQL6 whole entry): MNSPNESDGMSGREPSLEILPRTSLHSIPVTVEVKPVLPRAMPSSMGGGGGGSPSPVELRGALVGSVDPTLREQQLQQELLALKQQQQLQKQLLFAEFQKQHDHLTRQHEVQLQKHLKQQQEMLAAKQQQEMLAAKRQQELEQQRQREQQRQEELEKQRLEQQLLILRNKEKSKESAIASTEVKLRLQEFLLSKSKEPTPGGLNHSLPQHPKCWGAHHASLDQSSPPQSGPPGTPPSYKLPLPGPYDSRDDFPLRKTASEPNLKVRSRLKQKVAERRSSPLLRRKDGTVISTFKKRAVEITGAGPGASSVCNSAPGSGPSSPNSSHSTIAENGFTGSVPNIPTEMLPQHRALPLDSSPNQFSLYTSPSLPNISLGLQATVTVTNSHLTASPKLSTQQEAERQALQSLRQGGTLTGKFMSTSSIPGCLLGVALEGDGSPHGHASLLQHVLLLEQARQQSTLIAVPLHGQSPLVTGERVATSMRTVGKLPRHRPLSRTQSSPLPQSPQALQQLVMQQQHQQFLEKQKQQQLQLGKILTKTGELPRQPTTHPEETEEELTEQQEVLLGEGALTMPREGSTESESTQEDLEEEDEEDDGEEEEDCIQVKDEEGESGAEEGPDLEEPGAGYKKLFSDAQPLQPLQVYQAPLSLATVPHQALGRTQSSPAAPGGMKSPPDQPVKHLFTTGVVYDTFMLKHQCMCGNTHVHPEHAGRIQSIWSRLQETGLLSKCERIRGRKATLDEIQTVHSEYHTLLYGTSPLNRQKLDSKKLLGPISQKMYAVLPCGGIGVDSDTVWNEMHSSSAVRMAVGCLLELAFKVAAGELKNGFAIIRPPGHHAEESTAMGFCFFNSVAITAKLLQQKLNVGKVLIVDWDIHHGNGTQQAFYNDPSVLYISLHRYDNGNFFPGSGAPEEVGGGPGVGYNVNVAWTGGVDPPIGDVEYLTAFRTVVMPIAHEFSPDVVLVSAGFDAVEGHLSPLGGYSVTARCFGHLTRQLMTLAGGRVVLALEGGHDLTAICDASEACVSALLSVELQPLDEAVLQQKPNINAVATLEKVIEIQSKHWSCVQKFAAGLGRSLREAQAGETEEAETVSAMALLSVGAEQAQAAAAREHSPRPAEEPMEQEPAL

Take `NC(=O)c1cccc2[nH]c(-c3ccc(NCc4ccc(C(=O)Nc5ccccc5N)cc4)cc3)nc12`: the values for the Activity in test [1], in test [2] and in test [3] were 85.7%, 107% and 103%, respectively. Also, at Histone deacetylase 1, the pIC50 is 7.30.

By pIC50 is commonly meant the negative decadic logarithm of the IC50, by convention in mol/L. Read a high pIC50 as a low IC50.
